Laboratory results published in patent publication US9314020B2, “Microbicidal composition” (Dow Global Technologies LLC, priority 2012, dated 2016).

What was measured:
[1] = system: Desulfovibrio longus ATCC 51456; assay: Biocidal efficacy against anaerobic bacteria (2 h kill in deoxygenated salt solution); type: cell-based
Experimental: (§1) The synergism of the biocides combination of the present invention was determined using the method described by Kull, F. C, et. al. in Applied Microbiology 9:538-541 (1961).
(§2) The formula to calculate the synergistic index (SI) is Qa/QA+Qb/QB=SI where
(§3) QA=concentration of compound A in ppm, acting alone produced an end point or if end point could not be established, the highest concentration tested will be used as the end point for the calculation and the SI will be recorded in “less than or <” values
(§4) Qa=concentration of compound A in ppm, in the mixture, which produced an end point
(§5) QB=concentration of compound B in ppm, acting alone produced an end point or if end point could not be established, the highest concentration tested will be used as the end point for the calculation and the SI will be recorded in “less than or <” values
Inside an anaerobic chamber (BACTRON anaerobic chamber), a deoxygenated sterile salt solution (3.1183 g of NaCl, 1.3082 mg of NaHCO3, 47.70 mg of KCl, 72.00 mg of CaCl2, 54.49 mg of MgSO4, 172.28 mg of Na2SO4, 43.92 mg of Na2CO3 in 1 L water) was inoculated with Desulfovibrio longus ATCC 51456, a sulfate-reducing bacterium, to a final bacterial concentration of 10^7 to 10^8 CFU/mL. Aliquots of this cell suspension were then treated with DBMAL, DTEA (in the hydrochloride form), and DBMAL/DTEA blends, at selected active concentrations. After the treated cell suspensions were incubated at 35° C. for 2 hours, the biocidal efficacy was determined by minimum tested biocide concentration for 99.999% bacteria kill in the aliquots. Table 1 summarizes the efficacy of each biocide and their blends, and the Synergy Index (SI) of each combination.
(§6) In order to differentiate DBMAL/DTEA combinations from DTEA/DBNPA combinations, DTEA/DBNPA combinations were also tested using the same test procedures and conditions described above.

[2] = system: Pseudomonas aeruginosa ATCC 10145, Aeromonas hydrophila ATCC 7965, and Myroides odoratus (Flavobacterium odoratum) NCIMB 13294; assay: Efficacy against aerobic bacteria in synthetic cooling water (4 h kill, TSB/Resazurin readout); type: cell-based; details: for Concentration (ppm a.i.) for complete bacterial kill in 4 hours: DBNPA: DBNPA alone or DBNPA part of DTEA/DBNPA blend; for Concentration (ppm a.i.) for complete bacterial kill in 4 hours: DBMAL: DBMAL alone or DBMAL part of DTEA/DBMAL blend
Experimental: as §1, §2, §3, §4, §5
Synthetic cooling water was generated as disclosed in Appendix A and dispensed into three 96-well plates. A stock solution of DBMAL from 12% liquid active (or DBNPA from a solid formulation as appropriate) and a stock solution of DTEA (in the hydrochloride form) derived from a liquid stock stored under anaerobic conditions were generated in the synthetic cooling water. In one 96-well biocide block, the stock solution of DBMAL (or DBNPA as listed) was added to the first row of the master block and diluted 1:1 by row until the testing range has been prepared. In a second 96-well biocide block, the stock solution of DTEA was added to the first column of the master block and diluted 1:1 by column until the testing range has been prepared. Biocides from each DBMAL row in the DBMAL biocide master block were added to the matching experimental row in a 3rd 96 well plate filled with synthetic cooling water. This was repeated, adding biocides from each DTEA column from the DTEA biocide master block to the matching experimental column Working quickly, the following organisms were added from a cell-suspension with an OD600 of ˜0.4 (approximately 1×10^8 cfu/ml) to final concentration of 1×10^7 cfu/ml in the first of the 96 well plates: Pseudomonas aeruginosa ATCC 10145, Aeromonas hydrophila ATCC 7965, and Myroides odoratus (Flavobacterium odoratum) NCIMB 13294. The resulting bacterial final concentration was 3×10^7 cfu/ml in the experimental 96 well block.
The experimental block was placed at 35° C., with the time of exposure started once the last well had been inoculated. At 4 hours, the experimental block was removed from the incubator, and 20 μl of treated cells from each row of the experimental block and were added to the first row of a 96-well plate pre-filled with TSB/Resazurin dye. Each sample from the first row of the TSB/Resazurin dye plate was diluted 1:10 six times by serial dilution moving down the plate by row. The inoculated TSB/Resazurin dye 96-well plate was placed at 35° C. for 24 hours, following that time data interpretation occurred. Color change from purple to pink indicates microbial metabolic activity and designates lack of cell death. Those wells were counted as “growth”. Failure to have color change from purple to pink indicates a lack of microbial metabolic activity and designates cell death. These were counted as “no growth”. […] The efficacy and synergy index of each combo were also included.
as §6

SMILES: N#CC(Br)(Br)C(N)=O [DBNPA alone]
- Concentration (ppm a.i.) for more than 99.999% bacterial kill in 2 hours: DBNPA ([1]; DBNPA alone or DBNPA part of DTEA/DBNPA blend, Table 6): 25.00 ppm a.i.
- Concentration (ppm a.i.) for complete bacterial kill in 4 hours: DBNPA ([2]; experiment 5): 6.25 ppm a.i.
- Concentration (ppm a.i.) for complete bacterial kill in 4 hours: DBNPA ([2]; experiment 6): 6.25 ppm a.i.
- Concentration (ppm a.i.) for complete bacterial kill in 4 hours: DBNPA ([2]; experiment 7): 6.25 ppm a.i.

SMILES: CCCCCCCCCCSCCN.Cl [DTEA alone, 2-(decylthio)ethanamine hydrochloride]
- Concentration (ppm a.i.) for more than 99.999% bacterial kill in 2 hours: DTEA ([1]; DTEA alone or DTEA part of DTEA/DBMAL blend, 35° C., 2 hours, Table 1): 25.00 ppm a.i.
- Concentration (ppm a.i.) for more than 99.999% bacterial kill in 2 hours: DTEA ([1]; DTEA alone or DTEA part of DTEA/DBNPA blend, Table 6): 25.00 ppm a.i.
- Concentration (ppm a.i.) for complete bacterial kill in 4 hours: DTEA ([2]; DTEA alone or DTEA part of DTEA/DBMAL blend, experiment 1): 12.50 ppm a.i.
- Concentration (ppm a.i.) for complete bacterial kill in 4 hours: DTEA ([2]; DTEA alone or DTEA part of DTEA/DBMAL blend, experiment 2): 25.00 ppm a.i.
- Concentration (ppm a.i.) for complete bacterial kill in 4 hours: DTEA ([2]; DTEA alone or DTEA part of DTEA/DBMAL blend, experiment 3): 25.00 ppm a.i.
- Concentration (ppm a.i.) for complete bacterial kill in 4 hours: DTEA ([2]; DTEA alone or DTEA part of DTEA/DBMAL blend, experiment 4): 100.00 ppm a.i.
- Concentration (ppm a.i.) for complete bacterial kill in 4 hours: DTEA ([2]; DTEA alone or DTEA part of DTEA/DBNPA blend, experiment 5): 50.00 ppm a.i.
- Concentration (ppm a.i.) for complete bacterial kill in 4 hours: DTEA ([2]; DTEA alone or DTEA part of DTEA/DBNPA blend, experiment 6): 100.00 ppm a.i.
- Concentration (ppm a.i.) for complete bacterial kill in 4 hours: DTEA ([2]; DTEA alone or DTEA part of DTEA/DBNPA blend, experiment 7): 50.00 ppm a.i.

SMILES: NC(=O)C(Br)(Br)C(N)=O [DBMAL alone, 2,2-dibromomalonamide]
- Concentration (ppm a.i.) for more than 99.999% bacterial kill in 2 hours: DBMAL ([1]; DBMAL alone or DBMAL part of DTEA/DBMAL blend, 35° C., 2 hours, Table 1): 100.00 ppm a.i.
- Concentration (ppm a.i.) for complete bacterial kill in 4 hours: DBMAL ([2]; experiment 1): 25.00 ppm a.i.
- Concentration (ppm a.i.) for complete bacterial kill in 4 hours: DBMAL ([2]; experiment 2): 25.00 ppm a.i.
- Concentration (ppm a.i.) for complete bacterial kill in 4 hours: DBMAL ([2]; experiment 3): 25.00 ppm a.i.
- Concentration (ppm a.i.) for complete bacterial kill in 4 hours: DBMAL ([2]; experiment 4): 50.00 ppm a.i.
- Synergy Index ([2]; DTEA/DBMAL blends, experiment 3): 1.00
